Test results from PubChem BioAssay AID2060344 (Molecular Pharmacology Branch, DTP, NCI, 2025).
pIC50: −log10 of the molar value. Where “and” joins values, the source holds several entries; their conditions need not be identical. Equal values may be shown once. Each block holds one molecule with its values, some of them ahead of it.

Tested on: SK-MEL-2 multi-cell spheroids, viability
Test: Anticancer human tumor SK-MEL-2 cell line growth inhibition [TAK];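 also: spheroids exposed to drugs for seven days before readout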;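 as to viability, T/C: percent of DMSO vehicle control luminescence so 100% = untreated viability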
Details: for viability, T/C: stronger effect = lower value
Procedure, shortened: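 Drug combinations, each paired with TAK-243 or ipatasertib, were tested on multi-cell spheroids of 60% malignant cells, 25% HUVEC and 15% hMSC. Top concentrations were at or near the clinical Cmax (10 microM if undetermined), decreasing by half-log; viability is given as % test/control.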

[1] = curve of first compound, second compound 0.3 µM
[2] = curve of first compound, second compound 0.949 µM
[3] = curve of first compound, second compound 3 µM
[4] = curve of first compound, second compound 9.49 µM
[5] = curve of first compound, second compound 30 µM
[6] = second compound 0.3 µM, first compound 0.316 µM
[7] = second compound 0.3 µM, first compound 1 µM
[8] = second compound 0.3 µM, first compound 3.16 µM
[9] = second compound 0.3 µM, first compound 10 µM
[10] = second compound 0.949 µM, first compound 0.316 µM
[11] = second compound 0.949 µM, first compound 1 µM
[12] = second compound 0.949 µM, first compound 3.16 µM
[13] = second compound 0.949 µM, first compound 10 µM
[14] = second compound 3 µM, first compound 0.316 µM
[15] = second compound 3 µM, first compound 1 µM
[16] = second compound 3 µM, first compound 3.16 µM
[17] = second compound 3 µM, first compound 10 µM
[18] = second compound 9.49 µM, first compound 0.316 µM
[19] = second compound 9.49 µM, first compound 1 µM
[20] = second compound 9.49 µM, first compound 3.16 µM
[21] = second compound 9.49 µM, first compound 10 µM
[22] = second compound 30 µM, first compound 0.316 µM
[23] = second compound 30 µM, first compound 1 µM
[24] = second compound 30 µM, first compound 3.16 µM
[25] = second compound 30 µM, first compound 10 µM

Structure (SMILES): CCCS(=O)(=O)Nc1ccc(F)c(C(=O)c2c[nH]c3ncc(-c4ccc(Cl)cc4)cc23)c1F + CC(C)NCC(C(=O)N1CCN(c2ncnc3c2C(C)CC3O)CC1)c1ccc(Cl)cc1
pIC50 [1]: 4.59 | pIC50 [2]: 4.62 | pIC50 [3]: 4.88 | pIC50 [4]: 4.19 | pIC50 [5]: 4.73 | viability, T/C [6]: 127% | viability, T/C [7]: 108% | viability, T/C [8]: 105% | viability, T/C [9]: 118% | viability, T/C (second compound 0.3 µM, first compound 31.6 µM): 15.1% | viability, T/C (second compound 0.3 µM, first compound 100 µM): 57.5% | viability, T/C [10]: 121% | viability, T/C [11]: 110% | viability, T/C [12]: 107% | viability, T/C [13]: 80.3% | viability, T/C (second compound 0.949 µM, first compound 31.6 µM): 31.6% | viability, T/C (second compound 0.949 µM, first compound 100 µM): 49.3% | viability, T/C [14]: 115% | viability, T/C [15]: 110% | viability, T/C [16]: 105% | viability, T/C [17]: 61.1% | viability, T/C (second compound 3 µM, first compound 31.6 µM): 14.3% | viability, T/C (second compound 3 µM, first compound 100 µM): 10.9% | viability, T/C [18]: 112% | viability, T/C [19]: 120% | viability, T/C [20]: 107% | viability, T/C [21]: 114% | viability, T/C (second compound 9.49 µM, first compound 31.6 µM): 120% | viability, T/C (second compound 9.49 µM, first compound 100 µM): 10.4% | viability, T/C [22]: 121% | viability, T/C [23]: 124% | viability, T/C [24]: 64.3% | viability, T/C [25]: 119% | viability, T/C (second compound 30 µM, first compound 31.6 µM): 2.99% | viability, T/C (second compound 30 µM, first compound 100 µM): 2.24%

pIC50 (curve of compound): < 7.00
Structure (SMILES): COC1CC2CCC(C)C(O)(O2)C(=O)C(=O)N2CCCCC2C(=O)OC(C(C)CC2CCC(OCCO)C(OC)C2)CC(=O)C(C)C=C(C)C(O)C(OC)C(=O)C(C)CC(C)C=CC=CC=C1C (stereo unspecified)
viability, T/C (compound 0.000316 µM): 85% and 118% | viability, T/C (compound 0.001 µM): 66.2% and 89% | viability, T/C (compound 0.00316 µM): 57.4% and 74.4% | viability, T/C (compound 0.01 µM): 55.8% and 73.2% | viability, T/C (compound 0.0316 µM): 52.8% and 58.8% | viability, T/C (compound 0.1 µM): 47.7% and 69.9%

Structure (SMILES): CC(C)(C)c1nc(-c2cccc(NS(=O)(=O)c3c(F)cccc3F)c2F)c(-c2ccnc(N)n2)s1 + CC(C)NCC(C(=O)N1CCN(c2ncnc3c2C(C)CC3O)CC1)c1ccc(Cl)cc1
pIC50 [1]: 6.23 | pIC50 [2]: 6.30 | pIC50 [3]: 6.49 | pIC50 [4]: 6.55 | pIC50 [5]: 6.64 | viability, T/C (second compound 0.3 µM, first compound 0.0316 µM): 138% | viability, T/C (second compound 0.3 µM, first compound 0.1 µM): 118% | viability, T/C [6]: 75.9% | viability, T/C [7]: 28.6% | viability, T/C [8]: 12.5% | viability, T/C [9]: 17.2% | viability, T/C (second compound 0.949 µM, first compound 0.0316 µM): 119% | viability, T/C (second compound 0.949 µM, first compound 0.1 µM): 109% | viability, T/C [10]: 66.3% | viability, T/C [11]: 25.6% | viability, T/C [12]: 8.33% | viability, T/C [13]: 15.6% | viability, T/C (second compound 3 µM, first compound 0.0316 µM): 108% | viability, T/C (second compound 3 µM, first compound 0.1 µM): 105% | viability, T/C [14]: 50.1% | viability, T/C [15]: 15.7% | viability, T/C [16]: 6.41% | viability, T/C [17]: 11.7% | viability, T/C (second compound 9.49 µM, first compound 0.0316 µM): 88.1% | viability, T/C (second compound 9.49 µM, first compound 0.1 µM): 85.5% | viability, T/C [18]: 46.5% | viability, T/C [19]: 9.65% | viability, T/C [20]: 4.3% | viability, T/C [21]: 10.2% | viability, T/C (second compound 30 µM, first compound 0.0316 µM): 73.1% | viability, T/C (second compound 30 µM, first compound 0.1 µM): 73.8% | viability, T/C [22]: 41.1% | viability, T/C [23]: 9.6% | viability, T/C [24]: 5.11% | viability, T/C [25]: 10%

pIC50 (curve of compound): 7.73 and 7.74
Structure (SMILES): CC(C)CC(NC(=O)CNC(=O)c1cc(Cl)ccc1Cl)B1OC(=O)CC(CC(=O)O)(C(=O)O)O1 (stereo unspecified)
viability, T/C (compound 0.000316 µM): 110% and 95.1% | viability, T/C (compound 0.001 µM): 94.6% and 97.2% | viability, T/C (compound 0.00316 µM): 98% and 93.9% | viability, T/C (compound 0.01 µM): 79.3% and 75.7% | viability, T/C (compound 0.0316 µM): 24.6% and 26% | viability, T/C (compound 0.1 µM): 6.45% and 4.25%

pIC50 (curve of compound): < 5.00
Structure (SMILES): Cc1nc(NC(=O)N2CCCC2C(N)=O)sc1-c1ccnc(C(C)(C)C(F)(F)F)c1 (stereo unspecified)
viability, T/C (compound 0.0316 µM): 100% and 105% | viability, T/C (compound 0.1 µM): 91.2% and 91.5% | viability, T/C (compound 0.316 µM): 84.4% and 85.5% | viability, T/C (compound 1 µM): 80.7% and 83.9% | viability, T/C (compound 3.16 µM): 68.8% and 66.5% | viability, T/C (compound 10 µM): 55.6% and 54.2%
